Assay results: patent US6861524B2, “Acyl and sulfonyl derivatives of 6,9-disubstituted 2-(trans-1,4-diaminocyclohexyl)-purines and their use as antiproliferative agents” (Aventis Pharmaceuticals Inc., priority 2000, dated 2005)
Values joined by “and” are separate entries in the source; they are usually repeats but may differ in a detail not shown here. Equal entries are not always repeated.

What was measured:
[1] = Plasma pharmacokinetics in mice after single intravenous cassette doses; conditions: mice; for Mean concentration in plasma: single 18 mg/kg intravenous cassette dose (Cassette #1)
[2] = Red blood cell binding (RBC to plasma ratio), mouse whole blood; format: in vitro ADME; conditions: 30 minutes at 37° C., nominal 500 ng/ml
Description: (§1) Compounds, including one positive control, are assessed for red blood cell (RBC) uptake, using a modified procedure based on the protocol reported in Sun, J. X. S., et al. High-performance liquid chromatographic analysis, plasma protein binding and red blood cell partitioning of phenprobamate. Biopharmaceutics and Drug Disposition, 8 (1987) 341-351.
(§2) Briefly, RBC uptake is evaluated by comparison of the levels in spiked plasma (n=3) and plasma isolated from spiked whole blood (n=3). Compounds are incubated with human and mouse whole blood, respectively, for 30 minutes at 37° C. using a nominal concentration of 500 ng/ml. Following centrifugation, the plasma is removed and submitted for analysis. Each compound is also spiked into blank plasma at a nominal concentration of 500 ng/ml, and submitted for analysis. Levels in the two plasma samples (Cp′ and Cp in the equation below) and the blood hematocrit are used to determine the red blood cell to plasma ratio (Crbc/Cp). [formula] In equation 1, Cp′ is the level of drug in the spiked “blank” plasma, Cp is the level of drug in the plasma of spiked whole blood, and H is the hematocrit. The hematocrit values are determined as 0.4 for human whole blood and 0.41 for mouse whole blood. The samples are analyzed with ESI LC/MS, using positive ion detection with an internal standard.
(§3) The red blood cell to plasma ratio is determined for each compound using equation 1. Tables 6 and 7 summarize the respective mean Crbc/Cp values and standard deviations for mouse and human whole blood, respectively, in descending order based on the red blood cell to plasma ratio, where “*” denotes Positive Control, and “ND” denotes Not Determined. MDL 108552 is included as a positive control for red blood cell uptake.

[3] = Red blood cell binding (RBC to plasma ratio), human whole blood; format: in vitro ADME; conditions: 30 minutes at 37° C., nominal 500 ng/ml
Description: as §1, §2, §3

[4] = Cassette #3, single 15 mg/kg iv cassette dose (3 mg/kg/compound), 24 h
[5] = Cassette #2, single 18 mg/kg iv cassette dose (3 mg/kg/compound), 24 h
[6] = Cassette #4, single 15 mg/kg iv cassette dose (3 mg/kg/compound), 8 h
[7] = Cassette #4, single 15 mg/kg iv cassette dose (3 mg/kg/compound), 24 h
[8] = 24 h, BLQ = below assay quantification limit (approx. 1 ng/ml)

SMILES: Cl.Cl.N[C@H]1CC[C@H](Nc2nc(NC3CCN(C(=O)Oc4ccc(Cl)cc4)CC3)c3ncn(C4CCCC4)c3n2)CC1 [Compound 88, trans-4-[2-(4-Amino-cyclohexylamino)-9-cyclopentyl-9H-purin-6-ylamino]-piperidine-1-carboxylic acid 4-chloro-phenyl ester dihydrochloride]
- Mean Conc. in plasma ([1]; Cassette #3, single 15 mg/kg iv cassette dose (3 mg/kg/compound), 0.083 h): 1483.3 ± 272.5 ng/mL
- Mean Conc. in plasma ([1]; Cassette #3, single 15 mg/kg iv cassette dose (3 mg/kg/compound), 0.25 h): 420.9 ± 49.9 ng/mL
- Mean Conc. in plasma ([1]; Cassette #3, single 15 mg/kg iv cassette dose (3 mg/kg/compound), 0.5 h): 150.2 ± 5.9 ng/mL
- Mean Conc. in plasma ([1]; Cassette #3, single 15 mg/kg iv cassette dose (3 mg/kg/compound), 1 h): 74.6 ± 16.1 ng/mL
- Mean Conc. in plasma ([1]; Cassette #3, single 15 mg/kg iv cassette dose (3 mg/kg/compound), 3 h): 24.8 ± 7.4 ng/mL
- Mean Conc. in plasma ([1]; Cassette #3, single 15 mg/kg iv cassette dose (3 mg/kg/compound), 6 h): 8.9 ± 1.6 ng/mL
- Mean Conc. in plasma ([1]; Cassette #3, single 15 mg/kg iv cassette dose (3 mg/kg/compound), 8 h): 5.4 ± 2.0 ng/mL
- Mean Conc. in plasma [1, 4]: BLQ
- Mean Red Blood Cell to Plasma Ratio ([2]; hematocrit 0.41): 3.5
- Mean Red Blood Cell to Plasma Ratio [3]: 2.6

SMILES: Cl.Cl.N[C@H]1CC[C@H](Nc2nc(NC3CCN(C(=O)Oc4ccc(Br)cc4)CC3)c3ncn(C4CCCC4)c3n2)CC1 [Compound 81, trans-4-[2-(4-Amino-cyclohexylamino)-9-cyclopentyl-9H-purin-6-ylamino]-piperidine-1-carboxylic acid 4-bromo-phenyl ester dihydrochloride]
- Mean Conc. in plasma [1, 5]: BLQ
- Mean Red Blood Cell to Plasma Ratio ([2]; hematocrit 0.41, dihydrochloride): 4.5 and 3.3
- Mean Red Blood Cell to Plasma Ratio [3]: 5.3

SMILES: Cl.Cl.N[C@H]1CC[C@H](Nc2nc(NC3CCN(C(=O)Oc4ccc([N+](=O)[O-])cc4)CC3)c3ncn(C4CCCC4)c3n2)CC1 [Compound 89, trans-4-[2-(4-Amino-cyclohexylamino)-9-cyclopentyl-9H-purin-6-ylamino]-piperidine-1-carboxylic acid 4-nitro-phenyl ester dihydrochloride]
- Mean Conc. in plasma ([1]; Cassette #4, single 15 mg/kg iv cassette dose (3 mg/kg/compound), 0.083 h): 642.0 ± 49.5 ng/mL
- Mean Conc. in plasma ([1]; Cassette #4, single 15 mg/kg iv cassette dose (3 mg/kg/compound), 0.25 h): 303.3 ± 34.3 ng/mL
- Mean Conc. in plasma ([1]; Cassette #4, single 15 mg/kg iv cassette dose (3 mg/kg/compound), 0.5 h): 142.4 ± 2.7 ng/mL
- Mean Conc. in plasma ([1]; Cassette #4, single 15 mg/kg iv cassette dose (3 mg/kg/compound), 1 h): 52.4 ± 4.2 ng/mL
- Mean Conc. in plasma ([1]; Cassette #4, single 15 mg/kg iv cassette dose (3 mg/kg/compound), 3 h): 17.0 ± 4.7 ng/mL
- Mean Conc. in plasma ([1]; Cassette #4, single 15 mg/kg iv cassette dose (3 mg/kg/compound), 6 h): 3.7 ± 1.0 ng/mL
- Mean Conc. in plasma [1, 6]: 3.8 ± 0.5 ng/mL
- Mean Conc. in plasma [1, 7]: BLQ
- Mean Red Blood Cell to Plasma Ratio ([2]; hematocrit 0.41): 4.7
- Mean Red Blood Cell to Plasma Ratio [3]: 4.2

SMILES: Cl.Cl.N[C@H]1CC[C@H](Nc2nc(NC3CCN(S(=O)(=O)c4ccc(F)cc4)CC3)c3ncn(C4CCCC4)c3n2)CC1 [Compound 106, trans-N^2-(4-Amino-cyclohexyl)-9-cyclopentyl-N^6-[1-(4-fluoro-benzenesulfonyl)-piperidin-4-yl]-9H-purine-2,6-diamine dihydrochloride]
- Mean Conc. in plasma [1, 6]: BLQ^a
- Mean Conc. in plasma [1, 7]: BLQ
- Mean Red Blood Cell to Plasma Ratio ([2]; hematocrit 0.41): 3.0
- Mean Red Blood Cell to Plasma Ratio [3]: 3.9

SMILES: Cl.Cl.N[C@H]1CC[C@H](Nc2nc(NC3CCN(C(=O)c4cccc(C(F)(F)F)c4F)CC3)c3ncn(C4CCCC4)c3n2)CC1 [Compound 12, trans-1-{4-[2-(4-Amino-cyclohexylamino)-9-cyclopentyl-9H-purin-6-ylamino]-piperidin-1-yl}-1-(2-fluoro-3-trifluoromethyl-phenyl)-methanone dihydrochloride]
- Mean concentration in plasma [1, 8]: BLQ
- Mean Red Blood Cell to Plasma Ratio ([2]; hematocrit 0.41): 1.9
- Mean Red Blood Cell to Plasma Ratio [3]: 3.6

SMILES: COC(=O)c1ccccc1S(=O)(=O)N1CCC(Nc2nc(N[C@H]3CC[C@H](N)CC3)nc3c2ncn3C2CCCC2)CC1.Cl.Cl [Compound 111, trans-2-{4-[2-(4-Amino-cyclohexylamino)-9-cyclopentyl-9H-purin-6-ylamino]-piperidine-1-sulfonyl}-benzoic acid methyl ester dihydrochloride]
- Mean concentration in plasma [1, 8]: BLQ
- Mean Red Blood Cell to Plasma Ratio ([2]; hematocrit 0.41): 2.2
- Mean Red Blood Cell to Plasma Ratio [3]: 1.2

SMILES: Cl.Cl.N#Cc1ccc(S(=O)(=O)N2CCC(Nc3nc(N[C@H]4CC[C@H](N)CC4)nc4c3ncn4C3CCCC3)CC2)cc1 [Compound 109, trans-N^2-(4-Amino-cyclohexyl)-9-cyclopentyl-N^6-[1-(4-cyano-benzenesulfonyl)-piperidin-4-yl]-9H-purine-2,6-diamine dihydrochloride]
- Mean concentration in plasma [1, 8]: BLQ
- Mean Red Blood Cell to Plasma Ratio ([2]; hematocrit 0.41): 2.4
- Mean Red Blood Cell to Plasma Ratio [3]: 5.0

SMILES: COc1ccc(OC(=O)N2CCC(Nc3nc(N[C@H]4CC[C@H](N)CC4)nc4c3ncn4C3CCCC3)CC2)cc1.Cl.Cl [Compound 84, trans-4-[2-(4-Amino-cyclohexylamino)-9-cyclopentyl-9H-purin-6-ylamino]-piperidine-1-carboxylic acid 4-methoxy-phenyl ester dihydrochloride]
- Mean Conc. in plasma [1, 5]: BLQ
- Mean Red Blood Cell to Plasma Ratio ([2]; hematocrit 0.41): 3.5
- Mean Red Blood Cell to Plasma Ratio [3]: 2.0

SMILES: Cl.Cl.N[C@H]1CC[C@H](Nc2nc(NC3CCN(S(=O)(=O)c4cccc(C(F)(F)F)c4)CC3)c3ncn(C4CCCC4)c3n2)CC1 [Compound 112, trans-N^2-(4-Amino-cyclohexyl)-9-cyclopentyl-N^6-[1-(3-trifluoromethyl-benzenesulfonyl)-piperidin-4-yl]-9H-purine-2,6-diamine dihydrochloride]
- Mean Conc. in plasma [1, 4]: BLQ
- Mean Red Blood Cell to Plasma Ratio ([2]; hematocrit 0.41): 2.4
- Mean Red Blood Cell to Plasma Ratio [3]: 3.7

SMILES: Cl.Cl.N[C@H]1CC[C@H](Nc2nc(NC3CCN(C(=O)Nc4ccc(C(F)(F)F)cc4)CC3)c3ncn(C4CCCC4)c3n2)CC1 [Compound 149, trans-4-[2-(4-Amino-cyclohexylamino)-9-cyclopentyl-9H-purin-6-ylamino]-piperidine-1-carboxylic acid (4-trifluoromethyl-phenyl)-amide dihydrochloride]
- Mean Conc. in plasma [1, 4]: BLQ
- Mean Red Blood Cell to Plasma Ratio ([2]; hematocrit 0.41): 3.4
- Mean Red Blood Cell to Plasma Ratio [3]: 2.8

SMILES: Cl.Cl.N[C@H]1CC[C@H](Nc2nc(NC3CCN(C(=O)Oc4ccccc4)CC3)c3ncn(C4CCCC4)c3n2)CC1 [Compound 85, trans-4-[2-(4-Amino-cyclohexylamino)-9-cyclopentyl-9H-purin-6-ylamino]-piperidine-1-carboxylic acid phenyl ester dihydrochloride]
- Mean concentration in plasma ([1]; 0.083 h): 843.3 ± 124.5 ng/mL
- Mean concentration in plasma ([1]; 0.25 h): 341.6 ± 45.1 ng/mL
- Mean concentration in plasma ([1]; 0.5 h): 163.8 ± 15.7 ng/mL
- Mean concentration in plasma ([1]; 1 h): 89.0 ± 21.5 ng/mL
- Mean concentration in plasma ([1]; 3 h): 14.3 ± 7.1 ng/mL
- Mean concentration in plasma ([1]; 6 h): 5.2 ± 1.9 ng/mL
- Mean concentration in plasma ([1]; 8 h): 3.2 ng/mL
- Mean concentration in plasma [1, 8]: BLQ
- Mean Red Blood Cell to Plasma Ratio ([2]; hematocrit 0.41): 6.1
- Mean Red Blood Cell to Plasma Ratio [3]: 7.1
